The values that follow come from patent US8906925B2, “Pyrido[4,3-B]indoles containing rigid moieties” (Medivation Technologies, Inc., priority 2008, dated 2014).

The target in one test is histamine receptor H1 (Homo sapiens, UniProt P35367). The test is described as follows: Histamine H1 radioligand binding ([3H]Pyrilamine). The settings on record: for inhibition at 1 µM: read-out: Histamine Binding (1 μM) H1, percent inhibition of specific binding, 1 μM. The method, boiled down:
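Values are percent inhibition of specific [3H]pyrilamine (1.2 nM) binding with compounds at ≤1 μM (1% DMSO vehicle); 180 min incubation at 25 °C, pH 7.4 Tris buffer, on CHO-expressed human H1 receptor; 1 μM pyrilamine defined nonspecific binding, bound ligand counted after filtration.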

For test [1], the target named is T1, human recombinant adrenergic α2B receptor (Homo sapiens, UniProt P18089).
T1 construct: expressed in transfected cells; host or cells: Chinese hamster ovary (CHO-K1) cells
T1 sequence (P18089 1-450): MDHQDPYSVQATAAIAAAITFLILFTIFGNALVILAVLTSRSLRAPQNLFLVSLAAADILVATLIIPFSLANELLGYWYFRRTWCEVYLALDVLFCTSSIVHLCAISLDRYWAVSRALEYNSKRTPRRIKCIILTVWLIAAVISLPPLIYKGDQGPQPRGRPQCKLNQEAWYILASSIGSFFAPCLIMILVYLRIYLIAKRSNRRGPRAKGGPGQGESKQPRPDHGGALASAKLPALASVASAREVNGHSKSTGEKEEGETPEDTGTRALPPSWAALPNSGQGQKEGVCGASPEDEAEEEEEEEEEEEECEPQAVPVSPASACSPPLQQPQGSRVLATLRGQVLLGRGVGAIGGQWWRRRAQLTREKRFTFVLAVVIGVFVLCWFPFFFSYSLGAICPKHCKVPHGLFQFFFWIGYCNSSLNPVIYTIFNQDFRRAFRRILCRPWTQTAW
As to the kind of experiment: Adrenergic α2B radioligand binding ([3H]Rauwolscine). The settings on record: compound at 1 μM. The method, boiled down:
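Membranes from CHO-K1 cells expressing the receptor were incubated with 2.5 nM [3H]Rauwolscine for 60 min at 25 °C in Tris-HCl buffer pH 7.4 with MgCl2, EDTA and BSA. Non-specific binding was defined with 10 μM prazosin. Compounds were tested at ≤1 μM in 1% DMSO and read out as % inhibition of specific binding after filtration.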

The target of test [2] is T2, human recombinant adrenergic α2A receptor (Homo sapiens, UniProt P08913).
T2 construct: expressed in transfected cells; host or cells: insect Sf9 cells
T2 sequence (P08913 1-465): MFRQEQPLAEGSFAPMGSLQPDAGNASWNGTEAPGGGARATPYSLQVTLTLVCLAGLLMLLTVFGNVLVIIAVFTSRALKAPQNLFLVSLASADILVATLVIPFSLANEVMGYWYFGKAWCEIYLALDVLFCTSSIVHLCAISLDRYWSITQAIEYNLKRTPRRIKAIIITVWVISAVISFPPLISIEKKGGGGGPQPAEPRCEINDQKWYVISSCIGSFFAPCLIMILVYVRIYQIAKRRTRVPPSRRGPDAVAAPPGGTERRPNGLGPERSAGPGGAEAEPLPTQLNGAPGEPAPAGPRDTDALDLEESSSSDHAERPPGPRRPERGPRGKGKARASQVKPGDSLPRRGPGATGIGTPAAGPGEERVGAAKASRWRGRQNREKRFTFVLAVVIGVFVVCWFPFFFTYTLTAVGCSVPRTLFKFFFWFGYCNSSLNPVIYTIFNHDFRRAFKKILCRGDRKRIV
As to the kind of experiment: Adrenergic α2A radioligand binding ([3H]MK-912). The settings on record: compound at 1 μM. In outline: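 Sf9-expressed human receptor in 50 mM Tris-HCl pH 7.4, 12.5 mM MgCl2, 2 mM EDTA; compounds at 1 μM or lower (1% DMSO) incubated with 1 nM [3H]MK-912 for 60 min at 25° C. Non-specific binding defined with 10 μM WB-4101; filtered bound radioactivity counted, reported as percent inhibition of specific binding.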

Test [3] deals with human dopamine D2L receptor (Homo sapiens, UniProt P14416). As to the kind of experiment: Dopamine D2L radioligand binding ([3H]Spiperone). The conditions noted are these: compound at 1 μM; for Inhibition of ligand binding, Dopamine D2L: 1 µM. An excerpt: Non-specific binding was estimated in the presence of […] Haloperidol. Receptor proteins were filtered and washed, the filters were then counted to determine [^3H]Spiperone specifically bound. […] Biochemical assay results are presented as the percent inhibition of specific binding in Table 9.

Test [4] deals with T3, human recombinant histamine H2 receptor (Homo sapiens, UniProt P25021).
T3 construct: expressed in transfected cells; host or cells: Chinese hamster ovary (CHO) K1 cells
The test is described as follows: Histamine H2 radioligand binding ([125I]Aminopotentidine). The conditions noted are these: read-out: Histamine Binding (1 μM) H2, percent inhibition of specific binding, 1 μM. In outline: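 Receptor source: human recombinant H2 in CHO-K1 cells, assayed in 50 mM phosphate pH 7.4. Competition against 0.1 nM [125I]aminopotentidine, 120 min, 25 °C; 3 μM tiotidine sets nonspecific binding, filter-bound counts give specific binding.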

Where [5] appears, read: percent inhibition of specific binding, read-out: Inhibition of ligand binding, Adrenergic α2B.
Where [6] appears, read: percent inhibition of specific binding, read-out: Inhibition of ligand binding, Adrenergic α2A.
[7] abbreviates: percent inhibition of specific binding.
The mark [8] stands for this setting: percent inhibition of specific binding, read-out: Inhibition of ligand binding, Dopamine D2L.
Where [9] appears, read: […] [3H]Rauwolscine, read-out: Inhibition of ligand binding, Adrenergic α2B (percent inhibition of specific binding).
Setting [10] is: read-out: Inhibition of ligand binding, Adrenergic α2A (percent inhibition of specific binding).
Setting [11] is: […] [3H]Spiperone, read-out: Inhibition of ligand binding, Dopamine D2L (percent inhibition of specific binding).

By inhibition is commonly meant the drop in the measured response relative to a control, in per cent.

Read-outs that look alike come from different tables or passages of the source.

T3 sequence (P25021 whole entry): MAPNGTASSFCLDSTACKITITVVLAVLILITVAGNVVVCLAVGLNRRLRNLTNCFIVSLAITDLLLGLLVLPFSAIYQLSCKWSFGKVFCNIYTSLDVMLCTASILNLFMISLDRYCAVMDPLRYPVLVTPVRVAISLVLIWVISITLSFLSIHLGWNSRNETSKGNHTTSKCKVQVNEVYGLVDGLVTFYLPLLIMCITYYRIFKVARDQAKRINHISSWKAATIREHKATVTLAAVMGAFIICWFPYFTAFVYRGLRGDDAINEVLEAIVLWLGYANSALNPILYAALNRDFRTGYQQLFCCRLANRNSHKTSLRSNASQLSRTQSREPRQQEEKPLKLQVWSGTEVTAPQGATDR
Chain of histamine receptor H1 (P35367 whole entry): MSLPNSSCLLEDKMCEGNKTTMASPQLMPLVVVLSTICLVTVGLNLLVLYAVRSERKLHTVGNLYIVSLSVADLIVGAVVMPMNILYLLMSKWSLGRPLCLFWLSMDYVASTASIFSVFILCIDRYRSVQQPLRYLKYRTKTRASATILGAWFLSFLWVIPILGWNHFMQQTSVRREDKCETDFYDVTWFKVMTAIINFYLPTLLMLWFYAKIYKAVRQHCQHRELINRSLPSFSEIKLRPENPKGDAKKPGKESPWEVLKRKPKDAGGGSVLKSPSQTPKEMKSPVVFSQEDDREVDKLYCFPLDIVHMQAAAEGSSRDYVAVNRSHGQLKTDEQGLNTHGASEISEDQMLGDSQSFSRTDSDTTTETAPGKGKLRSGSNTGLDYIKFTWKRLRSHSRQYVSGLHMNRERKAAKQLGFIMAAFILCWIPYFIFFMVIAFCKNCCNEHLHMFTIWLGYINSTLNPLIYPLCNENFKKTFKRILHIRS
Chain of human dopamine D2L receptor (P14416 whole entry): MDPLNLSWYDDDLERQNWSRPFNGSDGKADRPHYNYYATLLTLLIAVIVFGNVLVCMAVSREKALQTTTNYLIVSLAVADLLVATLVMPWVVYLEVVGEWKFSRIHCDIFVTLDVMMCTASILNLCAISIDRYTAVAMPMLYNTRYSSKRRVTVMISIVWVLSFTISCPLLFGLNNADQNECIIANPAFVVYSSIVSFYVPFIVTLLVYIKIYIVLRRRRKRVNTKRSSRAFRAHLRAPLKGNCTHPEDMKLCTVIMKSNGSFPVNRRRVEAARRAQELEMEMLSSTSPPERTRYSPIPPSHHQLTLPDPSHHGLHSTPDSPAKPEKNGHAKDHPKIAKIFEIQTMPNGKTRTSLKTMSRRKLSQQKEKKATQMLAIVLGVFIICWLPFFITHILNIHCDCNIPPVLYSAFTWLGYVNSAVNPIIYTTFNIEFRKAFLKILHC

For the compound `COc1ccc(/C(C)=C/n2c3c(c4cc(Cl)ccc42)CN(C)CC3)cc1` [Compound 92, (E)-8-chloro-2,3,4,5-tetrahydro-5-(2-(4-methoxyphenyl)prop-1-enyl)-2-methyl-1H-pyrido[4,3-b]indole], the inhibition at 1 µM came out at 44% at histamine receptor H1; 103% in test [1] (setting [5]); 89% in test [2] (setting [6]); 83% in test [3] (setting [8]); 99% in test [4]. Besides, in test [3] (setting [7]), the “Inhibition of ligand binding, Dopamine D2L” value amounted to 97%.

In the case of `Cc1ccc2c(c1)c1c(n2C#Cc2ccc(C)nc2)CCN(C)C1` [Compound No. 476, 2,8-dimethyl-5-((6-methylpyridin-3-yl)ethynyl)-2,3,4,5-tetrahydro-1H-pyrido[4,3-b]indole], the inhibition at 1 µM came to 27% at histamine receptor H1; 87% in test [1] (setting [9]); 96% in test [2] (setting [10]); 19% in test [3] (setting [11]); 88% in test [4].

As to `Cc1ccc2c(c1)c1c(n2CC(O)(c2ccc(F)cc2)C2CCCCC2)CCN(C)C1` (stereo not shown) [Compound 171, 1-cyclohexyl-2-(2,8-dimethyl-3,4-dihydro-1H-pyrido[4,3-b]indol-5(2H)-yl)-1-(4-fluorophenyl)ethanol], the inhibition at 1 µM at histamine receptor H1 was 13%; in test [1] (setting [5]) it was 86%; in test [2] (setting [6]), 83%; in test [3] (setting [8]), 12%; in test [4] it was 85%.

Regarding `CN1CCc2c(c3cc(Cl)ccc3n2C/C=C/c2ccc(F)cc2)C1` [Compound 126, 5-(4-fluorocinnamyl)-8-chloro-2,3,4,5-tetrahydro-2-methyl-1H-pyrido[4,3-b]indole], the inhibition at 1 µM on histamine receptor H1 came to 103%; in test [1] (setting [5]), 116%; in test [2] (setting [6]), 87%; in test [3] (setting [8]), 84%; in test [4] it was 85%.

Take `COc1ccc(C(C)(O)Cn2c3c(c4cc(Cl)ccc42)CN(C)CC3)cc1F` (stereo not shown) [Compound 59, 1-(8-chloro-1,2,3,4-tetrahydro-2-methylpyrido[4,3-b]indol-5-yl)-2-(3-fluoro-4-methoxyphenyl)propan-2-ol]: the inhibition at 1 µM was determined as 63% on histamine receptor H1; 95% in test [1] (setting [5]); 83% in test [2] (setting [6]); 17% in test [3] (setting [8]); 58% in test [4].

On to `C=C(Cn1c2c(c3cc(C)ccc31)CN(C)CC2)c1ccc(F)cc1` [Compound 132, 5-(2-(4-fluorophenyl)allyl)-2,3,4,5-tetrahydro-2,8-dimethyl-1H-pyrido[4,3-b]indole], for which the inhibition at 1 µM on histamine receptor H1 turned out to be 96%; in test [1] (setting [5]), 118%; in test [2] (setting [6]), 97%; in test [3] (setting [8]) it was 91%; in test [4], 96%.

For the compound `Cc1ccc2c(c1)c1c(n2C/C(=C/C(=O)O)c2ccc(F)cc2)CCN(C)C1` [Compound No. 352, (E)-4-(2,8-dimethyl-3,4-dihydro-1H-pyrido[4,3-b]indol-5(2H)-yl)-3-(4-fluorophenyl)but-2-enoic acid], the inhibition at 1 µM at histamine receptor H1 is 4%; in test [1] (setting [9]), 47%; in test [2] (setting [10]), 34%; in test [3] (setting [11]) it was 0%; in test [4], 15%.

As to `CN1CCc2c(c3cc(Cl)ccc3n2/C=C(/c2ccc(F)cc2)C2CCC2)C1` [Compound 206, (E)-8-chloro-5-(2-cyclobutyl-2-(4-fluorophenyl)vinyl)-2-methyl-2,3,4,5-tetrahydro-1H-pyrido[4,3-b]indole], the inhibition at 1 µM at histamine receptor H1 was 76%; in test [1] (setting [5]), 89%; in test [2] (setting [6]), 96%; in test [3] (setting [8]) it was 76%; in test [4] it was 102%.

As to `CN1CCc2c(c3cc(Cl)ccc3n2CC(C)(O)c2ccncc2)C1` (stereo not shown) [Compound 63, 1-(8-chloro-1,2,3,4-tetrahydro-2-methylpyrido[4,3-b]indol-5-yl)-2-(pyridin-4-yl)propan-2-ol], the inhibition at 1 µM at histamine receptor H1 is 46%; in test [1] (setting [5]), 101%; in test [2] (setting [6]), 74%; in test [3] (setting [8]), 17%; in test [4], 53%.

With `Cc1ccc2c(c1)c1c(n2CC(O)c2cccnc2)CCN(C)C1` (stereo not shown) [Compound 54, 2-(1,2,3,4-tetrahydro-2,8-dimethylpyrido[4,3-b]indol-5-yl)-1-(pyridin-3-yl)ethanol], the inhibition at 1 µM on histamine receptor H1 is 68%; in test [1] (setting [5]) it was 103%; in test [2] (setting [6]), 39%; in test [3] (setting [8]) it was -4%; in test [4] it was 5%.

In the case of `CN1CCc2c(c3cc(Cl)ccc3n2C#Cc2ccc(F)cc2)C1` [Compound No. 475, 8-chloro-5-((4-fluorophenyl)ethynyl)-2-methyl-2,3,4,5-tetrahydro-1H-pyrido[4,3-b]indole], the inhibition at 1 µM at histamine receptor H1 is 34%; in test [1] (setting [9]), 106%; in test [2] (setting [10]), 93%; in test [3] (setting [11]), 95%; in test [4], 91%.

`CCCCC(O)(Cn1c2c(c3cc(Cl)ccc31)CN(C)CC2)c1ccc(F)cc1` (stereo not shown) [Compound 178, 1-(8-chloro-2-methyl-3,4-dihydro-1H-pyrido[4,3-b]indol-5(2H)-yl)-2-(4-fluorophenyl)hexan-2-ol]: the inhibition at 1 µM amounted to 30% on histamine receptor H1; 79% in test [1] (setting [5]); 88% in test [2] (setting [6]); 30% in test [3] (setting [8]); 89% in test [4].

Take `CN1CCc2c(c3cc(Cl)ccc3n2/C=C(\c2ccc(F)cc2)C2CC2)C1` [Compound 203, (Z)-8-chloro-5-(2-cyclopropyl-2-(4-fluorophenyl)vinyl)-2-methyl-2,3,4,5-tetrahydro-1H-pyrido[4,3-b]indole]: the “Histamine Binding (1 μM) H1, percent inhibition of specific binding” value on histamine receptor H1 (1 μM) was found to be 72%. In addition, the inhibition at 1 µM at histamine receptor H1 came out at 64%; in test [1] (setting [5]) it was 108%; in test [2] (setting [6]), 100%; in test [3] (setting [8]) it was 72%; in test [4], 99%. Also, the “Inhibition of ligand binding, Dopamine D2L” value in test [3] (setting [7]) stood at 78%.

Consider `Cc1ccc2c(c1)c1c(n2/C=C/c2ccccc2)CCN(C)C1` [Compound 202, (E)-2,8-dimethyl-5-styryl-2,3,4,5-tetrahydro-1H-pyrido[4,3-b]indole], for which the inhibition at 1 µM at histamine receptor H1 worked out at 100%; in test [1] (setting [5]), 98%; in test [2] (setting [6]) it was 98%; in test [3] (setting [8]), 83%; in test [4], 97%.
